Assays:
velvetleaf [1] = assay: Test A preemergence; type: in vivo, Abutilon theophrasti; conditions: preemergence; for Velvetleaf plant response rating (0 to 100 scale): visual injury approx. 10 days after treatment
In short: (§1)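 After sowing in a sand–loam mix, pots received compound preemergence by directed soil spray, or postemergence once plants reached the one- to two-leaf stage (2–10 cm). Formulation contained surfactant in a non-phytotoxic solvent. Injury was scored visually after ~10 greenhouse days, 0–100 scale.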

barnyardgrass [2] = assay: Test B flood; type: in vivo, Echinochloa crus-galli; conditions: 250 g ai/ha, visual rating on 0 to 100 scale (0 no effect, 100 complete control), 13 to 15 days
In short: (§2)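 Flooded-pot test: compound dosed into 3 cm of standing water above soil when plants had two leaves. Visual control ratings (0–100) versus untreated plants after 13–15 d.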

foxtail, giant [3] = assay: Test A postemergence; type: in vivo, Setaria faberii
In short: as §1

foxtail, giant [4] = assay: Test A preemergence; type: in vivo, Setaria faberii; conditions: preemergence; for Foxtail, Giant plant response rating (0 to 100 scale): visual injury approx. 10 days after treatment
In short: as §1

pigweed [5] = assay: Test A preemergence; type: in vivo, Amaranthus retroflexus; conditions: preemergence; for Pigweed plant response rating (0 to 100 scale): visual injury approx. 10 days after treatment
In short: as §1

corn [6] = assay: Test A preemergence; type: in vivo, Zea mays; conditions: preemergence; for Corn plant response rating (0 to 100 scale): visual injury approx. 10 days after treatment
In short: as §1

wheat [7] = assay: Test A preemergence; type: in vivo, Triticum aestivum; conditions: preemergence; for Wheat plant response rating (0 to 100 scale): visual injury approx. 10 days after treatment
In short: as §1

ducksalad = assay: Test B flood; type: in vivo, Heteranthera limosa; conditions: 250 g ai/ha, visual rating on 0 to 100 scale (0 no effect, 100 complete control), 13 to 15 days
In short: as §2

corn [8] = assay: Test A postemergence; type: in vivo, Zea mays
In short: as §1

barnyardgrass [9] = assay: Test A postemergence; type: in vivo, Echinochloa crus-galli
In short: as §1

sedge, umbrella = assay: Test B flood; type: in vivo, Cyperus difformis; conditions: 250 g ai/ha, visual rating on 0 to 100 scale (0 no effect, 100 complete control), 13 to 15 days
In short: as §2

rice = assay: Test B flood; type: in vivo, Oryza sativa; conditions: 250 g ai/ha, visual rating on 0 to 100 scale (0 no effect, 100 complete control), 13 to 15 days
In short: as §2

crabgrass, large [10] = assay: Test A preemergence; type: in vivo, Digitaria sanguinalis; conditions: preemergence; for Crabgrass, Large plant response rating (0 to 100 scale): visual injury approx. 10 days after treatment
In short: as §1

wheat [11] = assay: Test A postemergence; type: in vivo, Triticum aestivum
In short: as §1

morningglory [12] = assay: Test A preemergence; type: in vivo, Ipomoea spp.; conditions: preemergence; for Morningglory plant response rating (0 to 100 scale): visual injury approx. 10 days after treatment
In short: as §1

crabgrass, large [13] = assay: Test A postemergence; type: in vivo, Digitaria sanguinalis
In short: as §1

morningglory [14] = assay: Test A postemergence; type: in vivo, Ipomoea spp.
In short: as §1

pigweed [15] = assay: Test A postemergence; type: in vivo, Amaranthus retroflexus
In short: as §1

velvetleaf [16] = assay: Test A postemergence; type: in vivo, Abutilon theophrasti
In short: as §1

barnyardgrass [17] = assay: Test A preemergence; type: in vivo, Echinochloa crus-galli; conditions: preemergence
In short: as §1

[18] = 500 g ai/ha, visual injury after approx. 10 days, 0 to 100 scale (0 no effect, 100 complete control)
[19] = Postemergence, 500 g ai/ha, 0 to 100 scale (0 no effect, 100 complete control)
[20] = postemergence, 125 g ai/ha, about 10 days, visual rating on 0 to 100 scale (0 no effect, 100 complete control)
[21] = 125 g ai/ha, visual injury, 0 to 100 scale, approx. 10 days
[22] = Postemergence, 125 g ai/ha, 0 to 100 scale, 0 no effect, 100 complete control
[23] = Postemergence, 500 g ai/ha, visual rating after approx. 10 days, 0 to 100 scale (0 no effect, 100 complete control)

CCc1cc(C(=O)NCC#N)nn1Cc1ccnc(C(F)(F)F)c1 [Compound 147]
Velvetleaf plant response rating (0 to 100 scale) (velvetleaf [1]; 125 g ai/ha): 0 | Velvetleaf plant response rating (velvetleaf [1]; [18]): 30 | Plant response rating, Barnyardgrass (barnyardgrass [2]): 0 | Foxtail, Giant plant response rating (foxtail, giant [3]; [19]): 30 | Foxtail, Giant plant response rating (foxtail, giant [3]; [20]): 10 | Foxtail, Giant plant response rating (0 to 100 scale) (foxtail, giant [4]; 125 g ai/ha): 10 | Foxtail, Giant plant response rating (foxtail, giant [4]; [18]): 80 | Pigweed plant response rating (0 to 100 scale) (pigweed [5]; 125 g ai/ha): 90 | Pigweed plant response rating (pigweed [5]; [18]): 100 | Corn plant response rating (0 to 100 scale) (corn [6]; 125 g ai/ha): 0 | Corn plant response rating (corn [6]; [18]): 0 | Wheat plant response rating (0 to 100 scale) (wheat [7]; 125 g ai/ha): 0 | Wheat plant response rating (wheat [7]; [18]): 0 | Plant response rating, Ducksalad (ducksalad): 0 | Corn plant response rating (corn [8]; [19]): 10 | Corn plant response rating (corn [8]; [20]): 0 | Barnyardgrass plant response rating (barnyardgrass [9]; [19]): 30 | Barnyardgrass plant response rating (barnyardgrass [9]; [20]): 10 | Plant response rating, Sedge, Umbrella (sedge, umbrella): 0 | Plant response rating, Rice (rice): 0 | Crabgrass, Large plant response rating (0 to 100 scale) (crabgrass, large [10]; 125 g ai/ha): 50 | Crabgrass, Large plant response rating (crabgrass, large [10]; [18]): 100 | Wheat plant response rating (wheat [11]; [19]): 0 | Wheat plant response rating (wheat [11]; [20]): 0 | Morningglory plant response rating (0 to 100 scale) (morningglory [12]; 125 g ai/ha): 20 | Morningglory plant response rating (morningglory [12]; [18]): 70 | Crabgrass, Large plant response rating (crabgrass, large [13]; [19]): 40 | Crabgrass, Large plant response rating (crabgrass, large [13]; [20]): 10 | Morningglory plant response rating (morningglory [14]; [19]): 70 | Morningglory plant response rating (morningglory [14]; [20]): 30 | Pigweed plant response rating (pigweed [15]; [19]): 90 | Pigweed plant response rating (pigweed [15]; [20]): 60 | Velvetleaf plant response rating (velvetleaf [16]; [19]): 50 | Velvetleaf plant response rating (velvetleaf [16]; [20]): 30 | Barnyardgrass plant response rating (barnyardgrass [17]; [21]): 0 | Barnyardgrass plant response rating (barnyardgrass [17]; [18]): 30

CCCNC(=O)c1cc(CC)n(Oc2cccc(C(F)(F)F)c2)n1 [Compound 216]
Velvetleaf plant response rating (0 to 100 scale) (velvetleaf [1]; 125 g ai/ha): 0 | Plant response rating, Barnyardgrass (barnyardgrass [2]): 0 | Foxtail, Giant plant response rating (foxtail, giant [3]; [22]): 0 | Foxtail, Giant plant response rating (foxtail, giant [3]; [19]): 40 | Foxtail, Giant plant response rating (0 to 100 scale) (foxtail, giant [4]; 125 g ai/ha): 10 | Foxtail, Giant plant response rating (foxtail, giant [4]; [18]): 40 | Pigweed plant response rating (0 to 100 scale) (pigweed [5]; 125 g ai/ha): 0 | Corn plant response rating (0 to 100 scale) (corn [6]; 125 g ai/ha): 0 | Corn plant response rating (corn [6]; [18]): 10 | Wheat plant response rating (0 to 100 scale) (wheat [7]; 125 g ai/ha): 0 | Plant response rating, Ducksalad (ducksalad): 20 | Corn plant response rating (corn [8]; [22]): 0 | Corn plant response rating (corn [8]; [19]): 50 | Barnyardgrass plant response rating (barnyardgrass [9]; [22]): 0 | Barnyardgrass plant response rating (barnyardgrass [9]; [19]): 70 | Plant response rating, Sedge, Umbrella (sedge, umbrella): 30 | Plant response rating, Rice (rice): 0 | Crabgrass, Large plant response rating (0 to 100 scale) (crabgrass, large [10]; 125 g ai/ha): 60 | Crabgrass, Large plant response rating (crabgrass, large [10]; [18]): 90 | Wheat plant response rating (wheat [11]; [22]): 0 | Wheat plant response rating (wheat [11]; [19]): 0 | Morningglory plant response rating (0 to 100 scale) (morningglory [12]; 125 g ai/ha): 0 | Crabgrass, Large plant response rating (crabgrass, large [13]; [22]): 20 | Crabgrass, Large plant response rating (crabgrass, large [13]; [19]): 70 | Morningglory plant response rating (morningglory [14]; [22]): 20 | Morningglory plant response rating (morningglory [14]; [19]): 70 | Pigweed plant response rating (pigweed [15]; [22]): 20 | Pigweed plant response rating (pigweed [15]; [19]): 30 | Velvetleaf plant response rating (velvetleaf [16]; [22]): 0 | Velvetleaf plant response rating (velvetleaf [16]; [19]): 40 | Barnyardgrass plant response rating (0 to 100 scale, 0 is no effect, 100 is complete control) (barnyardgrass [17]; 125 g ai/ha, visual injury approx. 10 days after treatment): 0 | Barnyardgrass plant response rating (barnyardgrass [17]; [18]): 80

CCc1cc(C(=O)NC2CC2)nn1Cc1cccc(C(F)(F)F)n1 [Compound 91]
Velvetleaf plant response rating (velvetleaf [1]; [21]): 0 | Velvetleaf plant response rating (velvetleaf [1]; [18]): 0 | Plant response rating, Barnyardgrass (barnyardgrass [2]): 0 | Foxtail, Giant plant response rating (foxtail, giant [3]; [23]): 10 | Foxtail, Giant plant response rating (foxtail, giant [3]; [20]): 0 | Foxtail, Giant plant response rating (foxtail, giant [4]; [21]): 0 | Foxtail, Giant plant response rating (foxtail, giant [4]; [18]): 0 | Pigweed plant response rating (pigweed [5]; [21]): 0 | Pigweed plant response rating (pigweed [5]; [18]): 40 | Corn plant response rating (corn [6]; [21]): 0 | Corn plant response rating (corn [6]; [18]): 0 | Wheat plant response rating (wheat [7]; [21]): 0 | Wheat plant response rating (wheat [7]; [18]): 0 | Plant response rating, Ducksalad (ducksalad): 0 | Corn plant response rating (corn [8]; [23]): 10 | Corn plant response rating (corn [8]; [20]): 0 | Barnyardgrass plant response rating (barnyardgrass [9]; [22]): 0 | Barnyardgrass plant response rating (barnyardgrass [9]; [23]): 10 | Plant response rating, Sedge, Umbrella (sedge, umbrella): 0 | Plant response rating, Rice (rice): 0 | Crabgrass, Large plant response rating (crabgrass, large [10]; [21]): 0 | Crabgrass, Large plant response rating (crabgrass, large [10]; [18]): 20 | Wheat plant response rating (wheat [11]; [23]): 0 | Wheat plant response rating (wheat [11]; [20]): 0 | Morningglory plant response rating (morningglory [12]; [21]): 0 | Morningglory plant response rating (morningglory [12]; [18]): 0 | Crabgrass, Large plant response rating (crabgrass, large [13]; [23]): 10 | Crabgrass, Large plant response rating (crabgrass, large [13]; [20]): 0 | Morningglory plant response rating (morningglory [14]; [23]): 20 | Morningglory plant response rating (morningglory [14]; [20]): 10 | Pigweed plant response rating (pigweed [15]; [23]): 40 | Pigweed plant response rating (pigweed [15]; [20]): 20 | Velvetleaf plant response rating (velvetleaf [16]; [23]): 10 | Velvetleaf plant response rating (velvetleaf [16]; [20]): 10 | Barnyardgrass plant response rating (barnyardgrass [17]; [21]): 0 | Barnyardgrass plant response rating (barnyardgrass [17]; [18]): 0

— patent US20150105252A1, “SUBSTITUTED PYRAZOLES AS HERBICIDES” (E I DU PONT DE NEMOURS AND COMPANY, priority 2013, published 2015)
